This note sets out measurements from ChEMBL document CHEMBL1122174, “Behavioral and serotonin receptor properties of 4-substituted derivatives of the hallucinogen 1-(2,5-dimethoxyphenyl)-2-aminopropane” (J Med Chem, 1982).

Test [1] concerns Rattus norvegicus. Kind of test: Dose required to produce 50% hallucinogenic potency in rat was determined at a dose of 4 mg/kg; Disruption behavior. Format: functional, organism-based. Details: dose 4 mg/kg.
In test [2] the test system is Rattus norvegicus. Kind of test: Dose required to produce 50% hallucinogenic potency in rat was determined at a dose of 0.5 mg/kg. In kind it is functional.
The subject of test [3] is Rattus norvegicus. Description: Dose required to produce 50% hallucinogenic potency in rat was determined at a dose of 1 mg/kg. In kind it is functional.
The subject of test [4] is Rattus norvegicus. Kind of test: Number of rats responding out of 5 treated rats at a dose of 0.5 mg/Kg. In kind it is functional.
Test [5] deals with Rattus norvegicus. Kind of test: Number of rats responding out of 5 treated rats at a dose of 1 mg/Kg. Format: functional.
Test [6] deals with Rattus norvegicus. Description: Number of rats responding out of 5 treated rats at a dose of 1.5 mg/Kg. In kind it is functional.
Test [7] concerns Rattus norvegicus. Kind of test: Dose required to produce 50% hallucinogenic potency in rat was determined at a dose of 3 mg/kg. Format: functional.
The subject of test [8] is Rattus norvegicus. Kind of test: Dose required to produce 50% hallucinogenic potency in rat was determined at a dose of 2 mg/kg. Format: functional.
The subject of test [9] is Rattus norvegicus. Kind of test: Number of rats responding out of 5 treated rats at a dose of 2 mg/Kg. In kind it is functional.
The subject of test [10] is Rattus norvegicus. Kind of test: Number of rats responding out of 5 treated rats at a dose of 3 mg/Kg. In kind it is functional.
The species entered for another test is Homo sapiens. Description: Hallucinogenic potency was determined in humans. Format: functional.
Test [11] relates to Rattus norvegicus. Description: Dose required to produce 50% hallucinogenic potency in rat was determined at a dose of 3.0 mg/kg. Format: functional.
For test [12], the target named is Serotonin (5-HT) receptor. Kind of test: Binding affinity at rat 5-hydroxytryptamine receptor. In kind it is protein assay.
The test system of test [13] is Rattus norvegicus. Description: Dose required to produce 50% hallucinogenic potency in rat was determined at a dose of 0.25 mg/kg. In kind it is functional.
Test [14] relates to Rattus norvegicus. Description: Dose required to produce 50% hallucinogenic potency in rat was determined at a dose of 0.75 mg/kg. Format: functional.
Test [15] is filed under the species Rattus norvegicus. Kind of test: Dose at which the rats perform 50% appropriate drug -lever responding was determined. In kind it is functional.
Test [16] concerns Rattus norvegicus. Kind of test: Number of rats responding out of 5 treated rats at a dose of 0.25 mg/Kg. In kind it is functional.
Test [17] concerns Rattus norvegicus. Description: Number of rats responding out of 5 treated rats at a dose of 0.75 mg/Kg. Format: functional.
Test [18] concerns Rattus norvegicus. Description: Dose required to produce 50% hallucinogenic potency in rat was determined at a dose of 0.1 mg/kg. Format: functional.
In test [19] the test system is Rattus norvegicus. Kind of test: Dose required to produce 50% hallucinogenic potency in rat was determined at a dose of 0.15 mg/kg. Format: functional.
Test [20] relates to Rattus norvegicus. Kind of test: Dose required to produce 50% hallucinogenic potency in rat was determined at a dose of 0.2 mg/kg. In kind it is functional.
Test [21] deals with Rattus norvegicus. Description: Number of rats responding out of 5 treated rats at a dose of 0.10 mg/Kg. In kind it is functional.
Test [22] relates to Rattus norvegicus. Kind of test: Number of rats responding out of 5 treated rats at a dose of 0.15 mg/Kg. In kind it is functional.
For test [23], the system named is Rattus norvegicus. Kind of test: Number of rats responding out of 5 treated rats at a dose of 0.20 mg/Kg. In kind it is functional.
The test system of test [24] is Rattus norvegicus. Description: Number of rats responding out of 5 treated rats at a dose of 4 mg/Kg. Format: functional.
Test [25] deals with Rattus norvegicus. Description: Dose required to produce 50% hallucinogenic potency in rat was determined at a dose of 1.5 mg/kg. Format: functional.
For test [26], the system named is Rattus norvegicus. Kind of test: Dose required to produce 50% hallucinogenic potency in rat was determined at a dose of 2.5 mg/kg. In kind it is functional.
The subject of test [27] is Rattus norvegicus. Description: Number of rats responding out of 5 treated rats at a dose of 2.5 mg/Kg. In kind it is functional.

Calls of active or inactive are those of the source. The rule behind the calls is not given here.

For the compound `COc1ccc(CC(C)N)cc1` (racemic) [PARA-METHOXYAMPHETAMINE], in the test on Rattus norvegicus [1], the DOM entry is “inactive”. Also, the DOM was 13% in the test with Rattus norvegicus [2] and 15% in the test with Rattus norvegicus [3]. The values for the No. of animals in the test on Rattus norvegicus [4], in the test on Rattus norvegicus [5] and with Rattus norvegicus [6] were 5, 4 and 2, respectively.
`COc1cc(Br)c(OC)c(CC(C)N)c1` (racemic): the DOM with Rattus norvegicus [7] is 0%; in the test with Rattus norvegicus [3], 2%; with Rattus norvegicus [8] it was 3%. For the same compound, the figures for the No. of animals in the test with Rattus norvegicus [5], in the test on Rattus norvegicus [9] and with Rattus norvegicus [10] were 5, 5 and 4, respectively.
In the test listed under Homo sapiens, `COc1cc(CC(C)N)c(OC)cc1C` (racemic) [DOM] came in with an HHP of 2 mg. The ED50 in the test with Rattus norvegicus [11] stood at 0.44 mg/kg.
Taken in the same sequence, the figures for `COc1ccc(OC)c(CC(C)N)c1` (racemic) were 50 mg and 5.51 mg/kg.
Turning to `COc1cc(CC(C)N)c(OC)cc1I` (racemic), the pA2 in test [12] turned out to be 7.49. Also, the HHP in the test filed under Homo sapiens is 0.8 mg. The DOM with Rattus norvegicus [13] amounted to 31%; in the test with Rattus norvegicus [2], 41%; in the test with Rattus norvegicus [14], 80%; in the test with Rattus norvegicus [3], 93%. Moreover, it took a dose of 0.42 mg/kg to reach the 50% effect level in the test listed under Rattus norvegicus [15] (ED50). In addition, the No. of animals with Rattus norvegicus [16], with Rattus norvegicus [4], in the test with Rattus norvegicus [17] and in the test with Rattus norvegicus [5] was 5 throughout.
Compound `COc1cc(C[C@@H](C)N)c(OC)cc1Br` yielded an HHP in the test listed under Homo sapiens of 0.4 mg. Further, the DOM stood at 47% with Rattus norvegicus [18], 79% in the test on Rattus norvegicus [19] and 91% with Rattus norvegicus [20]. The compound further registered an ED50 in the test listed under Rattus norvegicus [15] of 0.1 mg/kg. For the same compound, the No. of animals with Rattus norvegicus [21], in the test on Rattus norvegicus [22] and in the test on Rattus norvegicus [23] was 5 in each case.
As to `COc1ccccc1CC(C)N` (racemic), the DOM was found to be 7% in the test with Rattus norvegicus [7] and 2% with Rattus norvegicus [8]. In addition, the DOM result with Rattus norvegicus [1] was “inactive”. The No. of animals in the test with Rattus norvegicus [9] amounted to 5; in the test with Rattus norvegicus [10], 4; with Rattus norvegicus [24] it was 2.
`COc1cc(CC(C)N)c(OC)cc1F` (racemic) returned a pA2 in test [12] of 7.2. For the same compound, the DOM in the test with Rattus norvegicus [7] turned out to be 88%; with Rattus norvegicus [2], 6%; in the test on Rattus norvegicus [14], 25%; with Rattus norvegicus [3], 43%; with Rattus norvegicus [25], 45%; in the test with Rattus norvegicus [26], 66%. Further, in the test filed under Rattus norvegicus [15], it took a dose of 1.45 mg/kg to reach the 50% effect level (ED50). Also, the No. of animals with Rattus norvegicus [4], in the test with Rattus norvegicus [17], with Rattus norvegicus [5] and with Rattus norvegicus [27] was 5 throughout.
Regarding `COc1cc(C[C@H](C)N)c(OC)cc1Br`, the HHP in the test listed under Homo sapiens was 4 mg. Besides, the DOM with Rattus norvegicus [2] turned out to be 20%; in the test on Rattus norvegicus [14], 35%; with Rattus norvegicus [25], 96%. The 50% effect level in the test filed under Rattus norvegicus [15] (ED50) was put at a dose of 0.81 mg/kg. Further, the No. of animals in the test on Rattus norvegicus [4], in the test on Rattus norvegicus [17] and with Rattus norvegicus [6] was 5 each time.

The term ED50 denotes the dose at which the effect has come halfway, by size or by number of responders. One may read the pA2 as a measure of antagonist potency on a negative log scale.
